Measured values from US20240150321A1, “PYRAZOLYLSULFONAMIDE COMPOUNDS AND THEIR USE IN THERAPY” (HOTSPOT THERAPEUTICS, INC., priority 2022, published 2024).
pIC50: −log10 of the molar value.

Columns and labels:
[1] = molecular target: Avi-tagged FL MALT-1 (Homo sapiens (Human), UniProt Q9UDY8); assay: MALT-1 Fluorogenic Peptide Cleavage Assay (MALT1 inhibition assay); format: biochemical; details: Ac-LRSR-AMC peptide substrate, 30 min pre-incubation, 90 min reaction at room temperature
Outline: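 Cleavage of Ac-LRSR-AMC, read as fluorescence at 342/441 nm after 90 min at room temperature, with substrate working stocks of 50 μM (Km) or 280 μM (10×Km). Enzyme, Avi-tagged full-length MALT-1 (40 nM stock), was first pre-incubated 30 min with compound in citrate/HEPES pH 6.89 buffer with TCEP, EDTA, CHAPS and 2% DMSO; IC50 fitted from normalised % inhibition.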

[2] = system: NF-kB reporter in Jurkat cells; assay: NF-kB reporter assay in Jurkat cells stimulated with aCD3/aCD28/PMA; format: cell-based; details: Homo sapiens; Jurkat cells, 1 hr compound pre-incubation, aCD3/aCD28/PMA stimulation 4 hr, One-Glo readout; read-out: NF-kB Reporter Assay IC50
Outline: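 Luminescence (One-Glo) from the NF-kB reporter yielded IC50 values. Stimulation lasted 4 h at 37° C with aCD3, aCD28 and PMA (final 5, 5 and 0.03 […]), after 1 h compound pre-exposure of 25,000 Jurkat cells per well in serum-free RPMI.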

Sequence of Avi-tagged FL MALT-1 (Q9UDY8 whole entry): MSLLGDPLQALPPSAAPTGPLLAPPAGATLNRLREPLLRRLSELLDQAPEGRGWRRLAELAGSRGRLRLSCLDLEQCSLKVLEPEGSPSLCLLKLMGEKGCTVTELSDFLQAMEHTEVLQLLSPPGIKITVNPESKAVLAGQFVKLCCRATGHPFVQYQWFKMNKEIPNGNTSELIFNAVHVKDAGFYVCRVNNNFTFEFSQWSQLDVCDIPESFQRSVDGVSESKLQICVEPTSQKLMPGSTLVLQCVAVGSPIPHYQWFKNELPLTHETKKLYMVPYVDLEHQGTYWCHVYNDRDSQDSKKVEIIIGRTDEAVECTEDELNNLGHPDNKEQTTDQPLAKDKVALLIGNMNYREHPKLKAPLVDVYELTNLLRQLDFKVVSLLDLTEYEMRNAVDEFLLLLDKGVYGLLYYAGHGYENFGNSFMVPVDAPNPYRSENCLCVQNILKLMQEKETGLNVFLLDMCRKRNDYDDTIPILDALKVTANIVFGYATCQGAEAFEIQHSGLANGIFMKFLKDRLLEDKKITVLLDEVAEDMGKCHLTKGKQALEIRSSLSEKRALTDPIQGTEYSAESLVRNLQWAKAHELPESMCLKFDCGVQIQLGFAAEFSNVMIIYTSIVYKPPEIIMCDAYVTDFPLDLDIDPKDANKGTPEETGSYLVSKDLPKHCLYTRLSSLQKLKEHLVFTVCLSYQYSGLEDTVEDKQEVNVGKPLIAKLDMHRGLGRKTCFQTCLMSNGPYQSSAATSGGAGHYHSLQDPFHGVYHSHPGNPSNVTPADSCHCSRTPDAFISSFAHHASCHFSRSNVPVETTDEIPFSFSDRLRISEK

SMILES	pIC50 [1]	pIC50 [2]
COc1ncc2cnn(C)c2c1NS(=O)(=O)c1cnn(-c2cc(N3CCC(F)(F)C3)ccn2)c1 [Compound I-428, 1-(4-(3,3-difluoropyrrolidin-1-yl)pyridin-2-yl)-N-(6-methoxy-1-methyl-1H-pyrazolo[4,3-c]pyridin-7-yl)-1H-pyrazole-4-sulfonamide]	6.00 to 6.40	> 6.40
Cn1ncc2cccc(NS(=O)(=O)c3cnn(-c4cc(N5CC[C@H](F)C5)ccn4)c3)c21 [Compound I-429, 1-{4-[(3S)-3-fluoropyrrolidin-1-yl]pyridin-2-yl}-N-(1-methylindazol-7-yl) pyrazole-4-sulfonamide]	< 5.60	> 6.40
Cn1ncc2cccc(NS(=O)(=O)c3cnn(-c4cc(N5CC[C@@H](F)C5)ccn4)c3)c21 [Compound I-430, 1-{4-[(3R)-3-fluoropyrrolidin-1-yl]pyridin-2-yl}-N-(1-methylindazol-7-yl)pyrazole-4-sulfonamide]	< 5.60	> 6.40
Cn1ncc2cccc(NS(=O)(=O)c3cnn(-c4cc(N5CCC(F)(F)C5)ccn4)c3)c21 [Compound I-431, 1-[4-(3,3-difluoropyrrolidin-1-yl)pyridin-2-yl]-N-(1-methylindazol-7-yl)pyrazole-4-sulfonamide]	< 5.60	> 6.40
COc1ccc2cnn(C)c2c1NS(=O)(=O)c1cnn(-c2cc(N3CC4CC3C4)ccn2)c1 [Compound I-432, 1-(4-(2-azabicyclo[2.1.1]hexan-2-yl)pyridin-2-yl)-N-(6-methoxy-1-methyl-1H-indazol-7-yl)-1H-pyrazole-4-sulfonamide]	6.00 to 6.40	> 6.40
COc1ccc2cnn(C)c2c1NS(=O)(=O)c1cnn(-c2cc(N3CCC4(CC4)C3)ccn2)c1 [Compound I-433]	< 5.60	> 6.40
COc1ccc2cnn(C)c2c1NS(=O)(=O)c1cnn(-c2cc(N3CCC(C)(C)C3)ccn2)c1 [Compound I-434]	< 5.60	> 6.40
COc1ccc2cnn(C)c2c1NS(=O)(=O)c1cnn(-c2cc(N3CCC(F)(F)C3)ccn2)c1 [Compound I-435, 1-(4-(3,3-difluoropyrrolidin-1-yl)pyridin-2-yl)-N-(6-methoxy-1-methyl-1H-indazol-7-yl)-1H-pyrazole-4-sulfonamide]	< 5.60	> 6.40
COc1ncc2cnn(C)c2c1NS(=O)(=O)c1cnn(-c2cc(N3CC4CC3C4)ccn2)c1 [Compound I-436]	5.60 to 6.00	> 6.40
CN(C)c1ccnc(-n2cc(S(=O)(=O)Nc3cccc4cnn(C)c34)cn2)c1 [Compound I-437, 1-[4-(dimethylamino)pyridin-2-yl]-N-(1-methylindazol-7-yl)pyrazole-4-sulfonamide]	< 5.60	> 6.40
Cn1ncc2cccc(NS(=O)(=O)c3cnn(-c4cc(N5CC(F)C5)ccn4)c3)c21 [Compound I-438, 1-[4-(3-fluoroazetidin-1-yl)pyridin-2-yl]-N-(1-methylindazol-7-yl)pyrazole-4-sulfonamide]	< 5.60	> 6.40
Cn1ncc2cccc(NS(=O)(=O)c3cnn(-c4cc(N5CC(F)(F)C5)ccn4)c3)c21 [Compound I-439, 1-[4-(3,3-difluoroazetidin-1-yl)pyridin-2-yl]-N-(1-methylindazol-7-yl) pyrazole-4-sulfonamide]	< 5.60	> 6.40
Cn1ncc2cccc(NS(=O)(=O)c3cnn(-c4cc(N5CC(C)(F)C5)ccn4)c3)c21 [Compound I-440, 1-[4-(3-fluoro-3-methylazetidin-1-yl)pyridin-2-yl]-N-(1-methylindazol-7-yl)pyrazole-4-sulfonamide]	< 5.60	> 6.40
COC1CN(c2ccnc(-n3cc(S(=O)(=O)Nc4cccc5cnn(C)c45)cn3)c2)C1 [Compound I-441, 1-(4-(3-methoxyazetidin-1-yl)pyridin-2-yl)-N-(1-methyl-1H-indazol-7-yl)-1H-pyrazole-4-sulfonamide]	< 5.60	> 6.40
COc1ccc2cnn(C)c2c1NS(=O)(=O)c1cnn(-c2cc(N3CC(F)C3)ccn2)c1 [Compound I-442]	5.60 to 6.00	> 6.40
